Reference: PMC11467737, “Osteocalcin binds to a GPRC6A Venus fly trap allosteric site to positively modulate GPRC6A signaling” (FASEB BioAdvances, 2024)

Assays:
human GPRC6A isoform 1 [1] = biological target: T1, human GPRC6A isoform 1 (Homo sapiens, UniProt Q5T6X5); assay: cAMP accumulation in HEK-293 cells transfected with human GPRC6A isoform 1 (wild-type, full length); assay type: cell-based; details: fragments at 20 nM; HEK-293 with pcDNA3-hGPRC6A; 40 min; Figure 3C / S5C
T1 construct: expressed in transfected cells; host or cells: HEK-293, pcDNA3-hGPRC6A
T1 sequence (Q5T6X5 19-926): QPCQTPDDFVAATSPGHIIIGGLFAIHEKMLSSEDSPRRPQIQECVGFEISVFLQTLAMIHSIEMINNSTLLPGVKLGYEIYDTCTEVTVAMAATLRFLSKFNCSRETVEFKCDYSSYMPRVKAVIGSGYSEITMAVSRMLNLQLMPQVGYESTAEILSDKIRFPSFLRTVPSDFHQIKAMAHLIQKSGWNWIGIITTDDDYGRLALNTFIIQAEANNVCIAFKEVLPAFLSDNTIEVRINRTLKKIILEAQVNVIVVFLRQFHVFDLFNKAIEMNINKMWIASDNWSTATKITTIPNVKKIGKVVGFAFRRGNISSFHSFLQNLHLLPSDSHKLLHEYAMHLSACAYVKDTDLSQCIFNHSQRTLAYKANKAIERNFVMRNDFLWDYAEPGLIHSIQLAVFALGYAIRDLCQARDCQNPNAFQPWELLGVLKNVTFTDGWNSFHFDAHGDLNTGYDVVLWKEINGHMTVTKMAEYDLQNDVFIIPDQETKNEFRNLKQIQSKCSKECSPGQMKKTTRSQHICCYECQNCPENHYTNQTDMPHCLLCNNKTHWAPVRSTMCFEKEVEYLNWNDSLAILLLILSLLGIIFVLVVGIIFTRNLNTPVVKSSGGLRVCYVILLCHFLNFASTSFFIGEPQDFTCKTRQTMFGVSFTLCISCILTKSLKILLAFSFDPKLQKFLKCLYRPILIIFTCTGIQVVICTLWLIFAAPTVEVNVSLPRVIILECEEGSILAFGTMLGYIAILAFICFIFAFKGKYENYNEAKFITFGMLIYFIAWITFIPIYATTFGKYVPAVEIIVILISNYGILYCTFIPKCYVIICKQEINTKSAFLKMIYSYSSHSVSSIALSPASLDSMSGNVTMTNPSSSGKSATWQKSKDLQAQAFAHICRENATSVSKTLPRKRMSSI
Protocol: (§1) HEK‐293 transfected with human GPRC6A isoform cDNA plasmids cells (10^5 cells/well)[30] were cultured in 24‐well plates in DMEM supplemented with 10% fetal bovine serum and 1% penicillin/streptomycin (100 U/mL of penicillin and 100 μg/mL of streptomycin) for 48 h followed by 4 h incubation in DMEM/F12 containing 0.1% BSA and 0.5 mM IBMX to achieve quiescence and preventing cAMP degradation. Quiescent cells were treated with vehicle control, various ligands at concentration as indicated for 40 min at 37°C. Then, the reaction was stopped, and the cells lysed with 0.5 mL 0.1 N HCl. cAMP levels were measured by using Cyclic AMP EIA kit (Cayman Chemical; Ann Arbor, MA, USA) following the manufacture's protocol.

human GPRC6A isoform 1 [2] = biological target: T1, human GPRC6A isoform 1; assay: ERK activation (phospho-ERK/total ERK ELISA) in HEK-293 cells transfected with human GPRC6A isoform 1 (wild-type); assay type: cell-based; details: fragments at 20 nM; HEK-293 with pcDNA3-hGPRC6A; 15 min; Figure 3B / S5B
Protocol: All culture reagents were from Invitrogen (Waltham, MA, USA). Human embryonic kidney HEK‐293 cells were obtained from American Type Culture Collection and cultured in DMEM medium supplemented with 10% fetal bovine serum and 1% Penicillin/Streptomycin (P/S). Briefly, HEK‐293 cells transfected with/without human GPRC6A isoforms cDNA plasmids were starved by overnight incubation in serum‐free DMEM/F12 containing 0.1% bovine serum albumin (BSA) and stimulated with various ligands at different doses. […]

human GPRC6A isoform 3 = biological target: T2, human GPRC6A isoform 3 (Homo sapiens, UniProt Q5T6X5); assay: cAMP accumulation in HEK-293 cells transfected with human GPRC6A isoform 3; assay type: cell-based; details: HEK-293 transfected with GPRC6A isoform 3, 40 min
T2 construct: expressed in transfected cells; host or cells: HEK-293
T2 sequence (Q5T6X5 19-855 isoform Q5T6X5-3 limits assumed): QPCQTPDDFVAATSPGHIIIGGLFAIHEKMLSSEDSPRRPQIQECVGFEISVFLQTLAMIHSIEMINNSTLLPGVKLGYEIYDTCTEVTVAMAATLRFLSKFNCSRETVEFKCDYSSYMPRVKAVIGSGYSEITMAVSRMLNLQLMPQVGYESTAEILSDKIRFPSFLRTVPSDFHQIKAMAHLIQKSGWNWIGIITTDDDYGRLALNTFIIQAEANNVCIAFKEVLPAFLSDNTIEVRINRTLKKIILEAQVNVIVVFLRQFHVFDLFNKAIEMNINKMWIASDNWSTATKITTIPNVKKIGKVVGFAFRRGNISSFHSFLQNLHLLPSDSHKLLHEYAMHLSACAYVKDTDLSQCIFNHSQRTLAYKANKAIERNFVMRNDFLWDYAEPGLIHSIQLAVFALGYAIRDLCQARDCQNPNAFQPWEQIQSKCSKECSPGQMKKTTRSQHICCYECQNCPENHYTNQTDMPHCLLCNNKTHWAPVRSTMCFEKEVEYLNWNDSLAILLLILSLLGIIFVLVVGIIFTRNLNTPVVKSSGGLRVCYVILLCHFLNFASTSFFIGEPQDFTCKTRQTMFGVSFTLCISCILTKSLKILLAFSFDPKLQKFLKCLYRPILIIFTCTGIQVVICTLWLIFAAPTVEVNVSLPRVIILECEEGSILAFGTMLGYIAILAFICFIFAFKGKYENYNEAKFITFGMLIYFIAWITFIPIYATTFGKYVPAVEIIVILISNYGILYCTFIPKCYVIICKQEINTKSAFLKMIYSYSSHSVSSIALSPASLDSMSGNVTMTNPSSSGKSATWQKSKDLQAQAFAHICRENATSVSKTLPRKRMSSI
Protocol: as §1

human GPRC6A isoform 2 = biological target: T3, human GPRC6A isoform 2 (Homo sapiens, UniProt Q5T6X5); assay: cAMP accumulation in HEK-293 cells transfected with human GPRC6A isoform 2; assay type: cell-based; details: HEK-293 transfected with GPRC6A isoform 2; presence of 1 mM calcium; 40 min; Figure 2A
T3 construct: expressed in transfected cells; host or cells: HEK-293
T3 sequence (Q5T6X5 19-751 isoform Q5T6X5-2 limits assumed): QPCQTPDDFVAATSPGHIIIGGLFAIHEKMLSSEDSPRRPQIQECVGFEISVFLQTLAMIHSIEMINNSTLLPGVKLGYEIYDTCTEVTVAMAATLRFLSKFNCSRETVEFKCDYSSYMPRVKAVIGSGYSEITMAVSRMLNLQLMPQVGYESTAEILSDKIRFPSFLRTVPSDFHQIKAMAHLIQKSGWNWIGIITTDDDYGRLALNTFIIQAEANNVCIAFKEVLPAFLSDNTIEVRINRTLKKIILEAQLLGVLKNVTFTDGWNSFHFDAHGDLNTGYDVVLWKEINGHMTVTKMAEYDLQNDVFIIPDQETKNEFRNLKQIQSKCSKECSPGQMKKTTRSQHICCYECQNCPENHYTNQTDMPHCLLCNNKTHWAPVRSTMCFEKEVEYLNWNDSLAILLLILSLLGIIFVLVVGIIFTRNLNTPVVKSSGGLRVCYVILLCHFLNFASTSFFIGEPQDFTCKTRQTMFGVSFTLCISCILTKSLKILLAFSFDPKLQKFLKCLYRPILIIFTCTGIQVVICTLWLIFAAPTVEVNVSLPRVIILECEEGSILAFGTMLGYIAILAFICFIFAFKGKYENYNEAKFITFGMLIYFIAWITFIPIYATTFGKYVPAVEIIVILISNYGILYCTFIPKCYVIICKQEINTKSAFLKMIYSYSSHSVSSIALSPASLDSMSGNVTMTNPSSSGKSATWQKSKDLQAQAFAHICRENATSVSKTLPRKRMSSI
Protocol: as §1

GPRC6A = tested on: GPRC6A; set-up: method as in PMID 32147363; details: cited from earlier work
mouse model = tested on: mouse model; set-up: method as in PMID 32147363; details: oral or intraperitoneal administration to a mouse model; cited from earlier work

APVPYPDPLEPR [Ocn 8–19, synthesized human Ocn fragment, 12 aa]
cAMP accumulation by synthesized human Ocn fragments (human GPRC6A isoform 1 [1]): activated GPRC6A
ERK phosphorylation by synthesized human Ocn fragments (human GPRC6A isoform 1 [2]): activated GPRC6A

C[C@]12CC[C@H]3[C@@H](CCC4=CC(=O)CC[C@@]43C)[C@@H]1CC[C@@H]2O [testosterone]
Testosterone (T) activation, cAMP accumulation (human GPRC6A isoform 3; Figure S4): loss responsive

N=C(N)NCCC[C@H](N)C(=O)O [L‐Arg, L‐Arginine]
L-Arg stimulation of cAMP accumulation (human GPRC6A isoform 2): loss of L‐Arg stimulation of cAMP
L-Arg stimulation of cAMP accumulation (human GPRC6A isoform 3; presence of 1 mM calcium, Figure 2A): retained responsiveness

WLGAPVPYPDPLEPR
Activation of GPRC6A in vitro (GPRC6A): activate GPRC6A in vitro
Effect on fatty liver disease and insulin resistance (mouse model): improve fatty liver disease and insulin resistance
